Results taken from US20100204118A1, “USE OF GRF-1 (1-29 ) AND CORTICOTROPIN-RELEASING FACTOR AS THERAPEUTIC AGENTS” (priority 2007, published 2010).
Ends that are not written are not given here.

Assays:
HUVEC = test: Endothelial tube formation assay; type: cell-based, human; settings: 10 micrograms per ml, 20 hours
Method: The endothelial tube formation assay is based on the ability of endothelial cells to form three-dimensional capillary-like tubular structures when cultured on a gel of basement membrane extract. The endothelial tube formation assay represents a powerful model for studying inhibition and induction of angiogenesis. Pre-labeled HUVEC with Calcein AM were seeded in a 96-well culture plate coated with extracellular metrix (Chemicon international Cat. ECM625) and treated with test peptides-10 micrograms per ml-in full growth medium. […] control was vehicle only. […] Duplicate wells for each treatment were photographed and quantitatevily analyzed for an average tubule length using image analysis software ImageProPlus. Raw data were expressed as average tubule […]±standard deviation. Statistic p values were computed using the Student's t-test.

[1] = test system: hepatitis B virus (HBV) ayw strain; test: HBV experimental assay system, HepG2-2.2.15, TaqMan PCR of secreted HBV DNA; type: cell-based; settings: 10 micrograms per ml; six days; HBV DNA in supernatant
Source text: HepG2-2.2.15 is a stable cell line containing the hepatitis B virus (HBV) ayw strain genome (ATCC Cat. No. CRL-11997). Antiviral compounds blocking any late step of viral replication such as transcription, translation, pregenome encapsidation, reverse transcription, particle assembly and release can be identified and characterized using this cell line. In this assay, an active compound will reduce the production of secreted HBV from cells, measured by utilizing real time quantitative PCR (TaqMan) assay to directly and accurately measure HBV DNA copies.
HepG2-2.2.15 cells were plated in 96-well microtiter plates. After 16-24 hours the confluent monolayer of HepG2-2.2.15 cells was washed and the medium was replaced with complete medium containing test peptides—10 micrograms per ml—in duplicate. […] Six days following the initial administration of the peptides, the cell culture supernatants was collected, treated with pronase and DNAse and then used in a real-time quantitative TaqMan PCR assay. The PCR-amplified HBV DNA was detected in real-time by monitoring increases in fluorescence signals that result from the exonucleolytic degradation of a quenched fluorescence probe molecule that hybridizes to the mplified HBV DNA. […] Antiviral activity was calculated from the reduction in HBV DNA levels (% virus control). […]

[2] = test system: Primary Human endothelial cells (HUVEC); test: Endothelial cell migration assay; type: cell-based; settings: 10 micrograms per ml, 22 hours
murine spleen cells = test: Th1/Th2 cytokine profiling assay (Ovalbumin-restimulated spleen cells, CBA kit); type: cell-based, mouse; settings: 10 micrograms per ml; 72 hours after Ovalbumin restimulation
HCMV strain AD169 = test: HCMV plaque reduction assay in MRC-5 cells; type: cell-based; settings: for inhibition of HCMV plaque formation as compared to the virus control experiment: 10 micrograms per ml, 7-10 days
A549 cells = test: Apoptosis induction assay (Annexin-5); type: cell-based, human; settings: 10 micrograms per ml, 24 hours
HIV-1IIB = test: HIV-1 antiviral assay in CEM-SS cells (MTS readout); type: cell-based

| Molecule | inhibition of the tube formation of human endothelial cells (HUVEC) | inhibition of HBV replication as compared to the virus control infection [1] [%] | production of IL-2, induced by (murine spleen cells) [%] | production of IL-5, decreased by (murine spleen cells) | production of TNF-alpha, induced by (murine spleen cells) [%] | inhibition of HCMV plaque formation as compared to the virus control experiment (HCMV strain AD169) [%] | antiviral activity of positive control compounds (HIV-1) (HIV-1IIB) | other results |
| --- | --- | --- | --- | --- | --- | --- | --- | --- |
| Ser-Glu-Glu-Pro-Pro-Ile-Ser-Leu-Asp-Leu-Thr-Phe-His-Leu-Leu-Arg-Glu-Val-Leu-Glu-Met-Ala-Arg-Ala-Glu-Gln-Leu- Ala-Gln-Gln-Ala-His-Ser-Asn-Arg-Lys-Leu-Met-Glu-Ile-Ile-N H2 (SEEPPISLDLTFHLLREVLEMARAEQLAQQAHSNRKLMEII-NH2) [Peptide 2] | did not inhibit | 57.2 | 66.5 | 93.0 | 38.1 | 3.2 | – | inhibition of the migration of human endothelial cells (in words) [2]: did not inhibit; production of IFN-gamma, induced by (murine spleen cells): 44.1%; production of IL-4, induced by (murine spleen cells): 78.1%; induction of apoptosis on human lung cells (A549 cells): 0.9% |
| Nc1nc(O)c2ncn(COC(CO)CO)c2n1 [Ganciclovir, reference compound] | – | – | – | – | – | – | – | antiviral activity of positive control compound (HCMV) (HCMV strain AD169; positive control): expected levels of antiviral activity |
| Cc1cn([C@H]2C[C@H](N=[N+]=[N-])[C@@H](CO)O2)c(=O)[nH]c1=O [AZT] | – | – | – | – | – | – | expected levels of antiviral activity | – |
| CC(C)(C)NC(=O)[C@@H]1CN(Cc2cccnc2)CCN1C[C@@H](O)C[C@@H](Cc1ccccc1)C(=O)N[C@H]1c2ccccc2C[C@H]1O [indinavir] | – | – | – | – | – | – | expected levels of antiviral activity | – |
| Tyr-Ala-Asp-Ala-Ile-Phe-Thr-Asn-Ser-Tyr-Arg-Lys-Val-Leu-Gly-Gln-Leu-Ser-Ala-Arg-Lys-Leu-Leu-Gln-Asp-Ile-Met-Ser-Arg-NH2 (YADAIFTNSYRKVLGQLSARKLLQDIMSR-NH2) [Peptide 1] | did not inhibit | 30.5 | 30.9 | 33.0 | 55.5 | 0.7 | – | inhibition of the migration of human endothelial cells [2]: 9%; change of the production of IL-4 (in words) (murine spleen cells): did not significantly change; production of IFN-gamma, decreased by (murine spleen cells): 29.0; induction of apoptosis on human lung cells (in words) (A549 cells): did not show any significant induction of apoptosis |
